Assay results reported in patent publication US9980943B2, “Methods of treating muscular dystrophy” (BOARD OF REGENTS OF THE NEVADA SYSTEM OF HIGHER EDUCATION, …, priority 2013, dated 2018).

Columns and labels:
Format in all cases: cell-based, mouse
[1] = system: α7 integrin (LacZ reporter in α7βgal+/− myoblasts); test: Myoblast α7+/LacZ integrin FDG assay (Burkin assay in myoblasts, 96-well); details: 96-well; for Burkin Assay in Myoblasts, value relative to DMSO: SU9516 analogs, N=3-6; for Burkin Assay in Myoblasts, signal relative to DMSO: α7+/LacZ myoblasts
[2] = system: α7 integrin (LacZ reporter in α7+/LacZ myotubes); test: Myotube α7 integrin FDG assay (Burkin assay in myotubes, 96-well); details: for Burkin Assay in Myotubes, value relative to DMSO: SU9516 analogs, 96-well, N=3-6
[3] = system: β-galactosidase in CMV-LacZ C2C12 myoblasts; test: CMV-LacZ secondary screen in C2C12 myoblasts (β-Gal stabilizing assay); details: for CMV-LACZ in Myoblasts, value relative to DMSO: SU9516 analogs, C2C12 CMV-LacZ, N=2; for CMV-LACZ in Myoblasts (β-galactosidase activity relative to DMSO): CMV-LacZ C2C12 myoblasts
Summary of the method: (§1)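 Dose-response runs at 0.5–40 μM (0.5, 1, 5, 10, 20, 40 μM; N=2 per point) used a clonal C2C12 line carrying CMV-LacZ. Cells were assayed as myoblasts or as differentiated myotubes, and β-galactosidase levels were read with the FDG fluorogenic substrate.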

[4] = system: β-galactosidase in CMV-LacZ C2C12 myotubes; test: CMV-LacZ secondary screen in C2C12 myotubes (β-Gal stabilizing assay); details: for CMV-LACZ in Myotubes, value relative to DMSO: SU9516 analogs, C2C12 CMV-LacZ, N=2; for CMV-LACZ in Myotubes, signal relative to DMSO: C2C12 CMV-LacZ myotubes, fold relative to DMSO
Summary of the method: as §1

O=C(O)COc1ccccc1/C=C1\C(=O)Nc2ccc(Br)cc21 [MLS001196427-01]
Burkin Assay in Myoblasts, value relative to DMSO ([1]; 0.5 uM): 1.02
Burkin Assay in Myoblasts, value relative to DMSO ([1]; 1 uM): 1.033
Burkin Assay in Myoblasts, value relative to DMSO ([1]; 5 uM): 0.9384
Burkin Assay in Myoblasts, value relative to DMSO ([1]; 10 uM): 0.9777
Burkin Assay in Myoblasts, value relative to DMSO ([1]; 20 uM): 0.8102
Burkin Assay in Myoblasts, value relative to DMSO ([1]; 40 uM): 0.8763
Burkin Assay in Myotubes, value relative to DMSO ([2]; 0.5 uM): 0.9194
Burkin Assay in Myotubes, value relative to DMSO ([2]; 1 uM): 1.02
Burkin Assay in Myotubes, value relative to DMSO ([2]; 5 uM): 1.022
Burkin Assay in Myotubes, value relative to DMSO ([2]; 10 uM): 1.135
Burkin Assay in Myotubes, value relative to DMSO ([2]; 20 uM): 0.7942
Burkin Assay in Myotubes, value relative to DMSO ([2]; 40 uM): 0.9365
CMV-LACZ in Myoblasts, value relative to DMSO ([3]; 0.5 uM): 0.7219
CMV-LACZ in Myoblasts, value relative to DMSO ([3]; 1 uM): 1.0356
CMV-LACZ in Myoblasts, value relative to DMSO ([3]; 5 uM): 0.9957
CMV-LACZ in Myoblasts, value relative to DMSO ([3]; 10 uM): 1.1811
CMV-LACZ in Myoblasts, value relative to DMSO ([3]; 20 uM): 0.7144
CMV-LACZ in Myoblasts, value relative to DMSO ([3]; 40 uM): 0.9563
CMV-LACZ in Myotubes, value relative to DMSO ([4]; 0.5 uM): 0.9363
CMV-LACZ in Myotubes, value relative to DMSO ([4]; 1 uM): 1.0704
CMV-LACZ in Myotubes, value relative to DMSO ([4]; 5 uM): 0.8423
CMV-LACZ in Myotubes, value relative to DMSO ([4]; 10 uM): 0.9282
CMV-LACZ in Myotubes, value relative to DMSO ([4]; 20 uM): 0.9918
CMV-LACZ in Myotubes, value relative to DMSO ([4]; 40 uM): 0.9000

O=C(N/N=C/c1c[nH]c2ccccc12)c1cc(Cl)ccc1O [MLS001196572-01]
Burkin Assay in Myoblasts, signal relative to DMSO ([1]; 0.5 uM): 0.8826
Burkin Assay in Myoblasts, signal relative to DMSO ([1]; 1 uM): 0.7626
Burkin Assay in Myoblasts, signal relative to DMSO ([1]; 5 uM): 1.224
Burkin Assay in Myoblasts, signal relative to DMSO ([1]; 10 uM): 0.9483
Burkin Assay in Myoblasts, signal relative to DMSO ([1]; 20 uM): 0.9362
Burkin Assay in Myoblasts, signal relative to DMSO ([1]; 40 uM): 0.9345
Burkin Assay in Myotubes, α7 integrin LacZ reporter signal relative to DMSO ([2]; 0.5 uM): 0.9236
Burkin Assay in Myotubes, α7 integrin LacZ reporter signal relative to DMSO ([2]; 1 uM): 0.8882
Burkin Assay in Myotubes, α7 integrin LacZ reporter signal relative to DMSO ([2]; 5 uM): 1.148
Burkin Assay in Myotubes, α7 integrin LacZ reporter signal relative to DMSO ([2]; 10 uM): 0.9294
Burkin Assay in Myotubes, α7 integrin LacZ reporter signal relative to DMSO ([2]; 20 uM): 0.9805
Burkin Assay in Myotubes, α7 integrin LacZ reporter signal relative to DMSO ([2]; 40 uM): 0.7181
CMV-LACZ in Myoblasts (β-galactosidase activity relative to DMSO) ([3]; 0.5 uM): 1.0105
CMV-LACZ in Myoblasts (β-galactosidase activity relative to DMSO) ([3]; 1 uM): 1.3172
CMV-LACZ in Myoblasts (β-galactosidase activity relative to DMSO) ([3]; 5 uM): 1.0605
CMV-LACZ in Myoblasts (β-galactosidase activity relative to DMSO) ([3]; 10 uM): 0.9456
CMV-LACZ in Myoblasts (β-galactosidase activity relative to DMSO) ([3]; 20 uM): 1.0767
CMV-LACZ in Myoblasts (β-galactosidase activity relative to DMSO) ([3]; 40 uM): 1.0778
CMV-LACZ in Myotubes, signal relative to DMSO ([4]; 0.5 uM): 0.9632
CMV-LACZ in Myotubes, signal relative to DMSO ([4]; 1 uM): 0.9379
CMV-LACZ in Myotubes, signal relative to DMSO ([4]; 5 uM): 0.9853
CMV-LACZ in Myotubes, signal relative to DMSO ([4]; 10 uM): 1.0223
CMV-LACZ in Myotubes, signal relative to DMSO ([4]; 20 uM): 1.1456
CMV-LACZ in Myotubes, signal relative to DMSO ([4]; 40 uM): 1.1422

CCOn1c(=O)c(-c2ccccc2)[n+]([O-])c2ccccc21 [MLS001197220-01]
Burkin Assay in Myoblasts, signal relative to DMSO ([1]; 0.5 uM): 1.2811
Burkin Assay in Myoblasts, signal relative to DMSO ([1]; 1 uM): 1.286
Burkin Assay in Myoblasts, signal relative to DMSO ([1]; 5 uM): 1.843
Burkin Assay in Myoblasts, signal relative to DMSO ([1]; 10 uM): 0.9218
Burkin Assay in Myoblasts, signal relative to DMSO ([1]; 20 uM): 1.111
Burkin Assay in Myoblasts, signal relative to DMSO ([1]; 40 uM): 1.0836
Burkin Assay in Myotubes, α7 integrin LacZ reporter signal relative to DMSO ([2]; 0.5 uM): 1.327
Burkin Assay in Myotubes, α7 integrin LacZ reporter signal relative to DMSO ([2]; 1 uM): 1.3061
Burkin Assay in Myotubes, α7 integrin LacZ reporter signal relative to DMSO ([2]; 5 uM): 1.254
Burkin Assay in Myotubes, α7 integrin LacZ reporter signal relative to DMSO ([2]; 10 uM): 1.004
Burkin Assay in Myotubes, α7 integrin LacZ reporter signal relative to DMSO ([2]; 20 uM): 0.9
Burkin Assay in Myotubes, α7 integrin LacZ reporter signal relative to DMSO ([2]; 40 uM): 0.831
CMV-LACZ in Myoblasts (β-galactosidase activity relative to DMSO) ([3]; 0.5 uM): 1.2028
CMV-LACZ in Myoblasts (β-galactosidase activity relative to DMSO) ([3]; 1 uM): 1.1569
CMV-LACZ in Myoblasts (β-galactosidase activity relative to DMSO) ([3]; 5 uM): 0.9355
CMV-LACZ in Myoblasts (β-galactosidase activity relative to DMSO) ([3]; 10 uM): 1.1383
CMV-LACZ in Myoblasts (β-galactosidase activity relative to DMSO) ([3]; 20 uM): 0.9567
CMV-LACZ in Myoblasts (β-galactosidase activity relative to DMSO) ([3]; 40 uM): 1.2844
CMV-LACZ in Myotubes, signal relative to DMSO ([4]; 0.5 uM): 0.8896
CMV-LACZ in Myotubes, signal relative to DMSO ([4]; 1 uM): 0.9356
CMV-LACZ in Myotubes, signal relative to DMSO ([4]; 5 uM): 0.9682
CMV-LACZ in Myotubes, signal relative to DMSO ([4]; 10 uM): 0.9289
CMV-LACZ in Myotubes, signal relative to DMSO ([4]; 20 uM): 0.9659
CMV-LACZ in Myotubes, signal relative to DMSO ([4]; 40 uM): 1.0271
